# Test results reported in patent publication US4977184A, “Bicyclic peroxides compositions for and treatment of malaria therewith” (Hoffmann-La Roche Inc., priority 1987, dated 1990).
# Test system: Plasmodium berghey
# Experiment: Blood schizontocidal activity in infected mice (ED50, s.c., four-fold administration)
# Assay type: in vivo, Plasmodium berghey; male albino mice
# Settings: mice infected with Plasmodium berghey, first 3 h after infection and on three subsequent days, smears D+4
# Description: They have a pronounced blood schizontocidal activity. The activity of the substances in accordance with the invention can be determined, for example, in the animal experiment described hereinafter: Male albino mice weighing 18-20 g are used as the experimental animals. They are kept in climatized rooms at 22°-23° C. in groups of 5 animals per cage. They receive ad libitum a diet feed with low PABA content and drinking water. On the first day of the experiment (DO) the experimental animals are infected with Plasmodium berghey by intravenously injecting into each of the experimental animals 0.2 ml of heparinized blood of infected donor mice. The donor blood is diluted so that it contains 10^7 parasitized erythrocytes per 0.2 ml. In untreated control animals the parasitemia normally reaches 70-80% on the fourth day after the infection (D+4) and the experimental animals die between days +5 to +8. The substances to be tested are dissolved or suspended in distilled water or in a mixture of Tween 80, alcohol (96%) and water. Generally, in each case 0.5 ml of this solution or suspension is administered subcutaneously to groups of 5 experimental animals. The treatment is effected for the first time 3 hours after the infection as well as on the three subsequent days. Suitable dilutions of the test compounds are used for the titration of the activity. Per experiment 10 animals are treated in the same manner with the solution or suspension medium. 24 hours after the last treatment (D+4) blood smears with blood from tail veins are prepared from all animals and stained with giemsa. The average erythrocyte infection rate (parasitemia in %) in the control group as well as in the groups which have been treated with the compounds to be tested is determined by counting under the microscope. The difference in the average value of the infection rate between control group (100%) and the treated groups is calculated and expressed as the percentage reduction. The ED50 is determined mathematically from the results obtained. The ED50 in mg/kg is that dosage which, after four-fold administration, reduces to 50% the average erythrocyte infection rate in comparison to the control group. The results which have been obtained with representative members of the class of substance defined by formula I in the previously described experiment are compiled in the following Table. Moreover, the Table contains data concerning the toxicity of some of these compounds.
row,Structure (SMILES),"Activity ED50 (dosage which, after four-fold administration, reduces to 50% the average erythrocyte infection rate versus control) [mg/kg]"
1,"CCCCCCCCCCC[C@@]1(C)OO[C@H]2C[C@@H]1CC(=O)[C@H]2C [(CH2)10CH3 (1S, 4R, 5R, 8S), (1S,4R,5R,8S)-4,8-dimethyl-4-undecyl-2,3-dioxabicyclo[3.3.1]nonan-7-one]",4.6
2,"CCCCCCCC/C=C/[C@@]1(C)OO[C@@H]2C[C@H]1CC(=O)[C@@H]2C [CHCH(CH2)7CH3 (1R, 4S, 5S, 8R), (1R,4S,5S,8R)-4-[(E)-1-decenyl]-4,8-dimethyl-2,3-dioxabicyclo[3.3.1]nonan-7-one]",4.5
3,"CCCCCCCCCC[C@@]1(C)OO[C@@H]2C[C@H]1CC(=O)[C@@H]2C [(CH2)9CH3 (1R, 4R, 5S, 8R), (1R,4R,5S,8R)-4-decyl-4,8-dimethyl-2,3-dioxabicyclo[3.3.1]nonan-7-one]",5.2
4,"CCCCCCCC[C@@]1(C)OO[C@@H]2C[C@H]1CC(=O)[C@@H]2C [(CH2)7CH3 (1R, 4R, 5S, 8R), (1R,4R,5S,8R)-4,8-dimethyl-4-octyl-2,3-dioxabicyclo[3.3.1]nonan-7-one]",6.4
5,"CCCCCCCCC[C@@]1(C)OO[C@@H]2C[C@H]1CC(=O)[C@@H]2C [(CH2)8CH3 (1R, 4R, 5S, 8R), (1R,4R,5S,8R)-4.8-dimethyl-4-nonyl-2,3-dioxabicyclo[3.3.1]nonan-7-one]",3.6
6,"CCCCCCCCCC[C@]1(C)OO[C@@H]2C[C@H]1CC(=O)[C@@H]2C [(CH2)9CH3 (1R, 4S, 5S, 8R), (1R,4S,5S,8R)-4-decyl-4,8-dimethyl-2,3-dioxabicyclo[3.3.1]-nonan-7-one]",3.4
7,"CCCCCCCCCCC[C@]1(C)OO[C@@H]2C[C@H]1CC(=O)[C@@H]2C [(CH2)10CH3 (1R, 4S, 5S, 8R), (1R,4S,5S,8R)-4,8-dimethyl-4-undecyl-2,3-dioxabicyclo[3.3.1]nonan-7-one]",3.4
8,"CCCCCCCC/C=C/[C@]1(C)OO[C@@H]2C[C@H]1CC(=O)[C@@H]2C [CHCH(CH2)7CH3 (1R, 4R, 5S, 8R), (1R,4R,5S,8R)-4-[(E)-1-decenyl]-4.8-dimethyl-2,3-dioxabicyclo[3.3.1]nonan-7-one]",6.2
9,"C[C@@H]1C(=O)C[C@H]2C[C@@H]1OO[C@@]2(C)/C=C\c1cc(C(F)(F)F)nc2cc(C(F)(F)F)ccc12 [drawing 9 (1S, 4R, 5R, 8S)]",5.4
10,"C[C@@H]1C(=O)C[C@H]2C[C@@H]1OO[C@@]2(C)/C=C\c1ccc(Cl)cc1Cl [drawing 10 (1S, 4R, 5R, 8S)]",4.6
11,"CCCCCCCCCCC[C@]1(C)OO[C@H]2C[C@@H]1CC(=O)[C@H]2C [(CH2)10CH3 (1S, 4S, 5R, 8S), (1S,4S,5R,8S)-4,8-dimethyl-4-undecyl-2,3-dioxabicyclo[3.3.1]nonan-7-one]",5.9
12,"C[C@H]1C(=O)C[C@@H]2C[C@H]1OO[C@]2(C)/C=C\c1cc(C(F)(F)F)nc2cc(C(F)(F)F)ccc12 [drawing 9 (1R, 4S, 5S, 8R)]",6.2
13,"CCCCCCCCCCC[C@@]1(C)OO[C@@H]2C[C@H]1CC(=O)[C@@H]2C [(CH2)10CH3 (1R, 4R, 5S, 8R), (1R,4R,5S,8R)-4,8-dimethyl-4-undecyl-2,3-dioxabicyclo[3.3.1]nonan-7-one]",5.2
14,"CCCCCCCC[C@]1(C)OO[C@@H]2C[C@H]1CC(=O)[C@@H]2C [(CH2)7CH3 (1R, 4S, 5S, 8R), (1R,4S,5S,8R)-4,8-dimethyl-4-octyl-2,3-dioxabicyclo[3.3.1]nonan-7-one]",5.2
15,"CCCCCCCCC[C@]1(C)OO[C@@H]2C[C@H]1CC(=O)[C@@H]2C [(CH2)8CH3 (1R, 4S, 5S, 8R), (1R,4S,5S,8R)-4,8-dimethyl-4-nonyl-2,3-dioxabicyclo[3.3.1]nonan-7-one]",6.0

# Test system: not listed separately
# Experiment: Toxicity, single oral administration to mice
# Settings: mouse, in vivo, p.o., no toxic symptoms at the dosage indicated, read-out: Toxicity, Dosage (no toxic symptoms observed at this amount)
# Text: The results which have been obtained with representative members of the class of substance defined by formula I in the previously described experiment are compiled in the following Table. Moreover, the Table contains data concerning the toxicity of some of these compounds.
row,Structure (SMILES),NOAEL [mg/kg]
1,"CCCCCCCCCCC[C@]1(C)OO[C@@H]2C[C@H]1CC(=O)[C@@H]2C [(CH2)10CH3 (1R, 4S, 5S, 8R), (1R,4S,5S,8R)-4,8-dimethyl-4-undecyl-2,3-dioxabicyclo[3.3.1]nonan-7-one]",3000
2,C[C@H]1C(=O)C[C@@H]2C[C@H]1OO[C@]2(C)/C=C\c1cc(C(F)(F)F)nc2cc(C(F)(F)F)ccc12 [drawing 9],6000
3,"CCCCCCCCCCC[C@@]1(C)OO[C@@H]2C[C@H]1CC(=O)[C@@H]2C [(CH2)10CH3 (1R, 4R, 5S, 8R), (1R,4R,5S,8R)-4,8-dimethyl-4-undecyl-2,3-dioxabicyclo[3.3.1]nonan-7-one]",3000
